Results as given in patent US12570671B2 (BRISTOL-MYERS SQUIBB COMPANY, priority 2020, dated 2026).

How the values were obtained:
Ikaros = Ikaros (Homo sapiens, UniProt Q13422+Q96SW2); test: Helios Cellular Degradation Assay (Ikaros readout); assay type: cell-based; design: endogenous in cells; host or cells: Jurkat; settings: Jurkat cells, 72 h incubation, Ikaros-Alexa488 antibody staining, flow cytometry; read-out: Ikaros Jurkat IC50
Procedure, shortened: (§1)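 Jurkat cells (80,000/well, RPMI+10% FBS) were treated with compound for 72 h at 37° C. After fixation and permeabilization they were stained with fluorescent antibodies to Helios, Ikaros and Aiolos. Intracellular protein levels were quantified by flow cytometry.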

Helios = Helios (Homo sapiens, UniProt Q96SW2+Q9UKS7); test: Helios Cellular Degradation Assay (Helios readout); assay type: cell-based; design: endogenous in cells; host or cells: Jurkat; settings: Jurkat cells, 72 h incubation, Helios-PE antibody staining, flow cytometry; read-out: Helios Jurkat IC50
Procedure, shortened: as §1

Sequence of Ikaros (Q13422 whole entry): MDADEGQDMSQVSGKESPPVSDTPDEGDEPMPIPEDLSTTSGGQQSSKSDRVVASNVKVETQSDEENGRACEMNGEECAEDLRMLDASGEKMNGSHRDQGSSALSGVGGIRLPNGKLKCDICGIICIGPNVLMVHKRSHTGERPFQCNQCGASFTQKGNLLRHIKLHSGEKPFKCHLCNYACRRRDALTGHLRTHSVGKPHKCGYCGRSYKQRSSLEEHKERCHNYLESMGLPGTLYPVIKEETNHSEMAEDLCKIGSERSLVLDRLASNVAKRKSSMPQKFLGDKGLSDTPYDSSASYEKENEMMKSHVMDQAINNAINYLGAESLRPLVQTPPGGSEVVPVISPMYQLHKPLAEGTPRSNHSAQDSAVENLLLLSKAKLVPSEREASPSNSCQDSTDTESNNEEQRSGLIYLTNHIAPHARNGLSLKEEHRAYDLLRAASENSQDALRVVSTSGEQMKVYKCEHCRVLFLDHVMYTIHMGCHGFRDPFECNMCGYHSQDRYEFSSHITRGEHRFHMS
Sequence of Ikaros (Q96SW2 whole entry): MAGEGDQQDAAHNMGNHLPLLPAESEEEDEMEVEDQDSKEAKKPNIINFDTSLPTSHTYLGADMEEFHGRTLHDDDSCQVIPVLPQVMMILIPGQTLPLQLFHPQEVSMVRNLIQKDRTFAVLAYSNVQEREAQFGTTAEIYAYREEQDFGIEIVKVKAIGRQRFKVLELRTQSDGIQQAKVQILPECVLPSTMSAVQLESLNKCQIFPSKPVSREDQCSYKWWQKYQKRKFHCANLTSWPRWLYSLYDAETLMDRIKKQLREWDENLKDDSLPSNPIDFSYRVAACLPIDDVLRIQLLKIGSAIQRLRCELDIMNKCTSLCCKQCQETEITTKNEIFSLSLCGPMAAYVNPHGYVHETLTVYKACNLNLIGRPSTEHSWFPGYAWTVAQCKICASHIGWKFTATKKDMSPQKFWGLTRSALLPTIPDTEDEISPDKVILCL
Sequence of Ikaros (Q16531 whole entry partner): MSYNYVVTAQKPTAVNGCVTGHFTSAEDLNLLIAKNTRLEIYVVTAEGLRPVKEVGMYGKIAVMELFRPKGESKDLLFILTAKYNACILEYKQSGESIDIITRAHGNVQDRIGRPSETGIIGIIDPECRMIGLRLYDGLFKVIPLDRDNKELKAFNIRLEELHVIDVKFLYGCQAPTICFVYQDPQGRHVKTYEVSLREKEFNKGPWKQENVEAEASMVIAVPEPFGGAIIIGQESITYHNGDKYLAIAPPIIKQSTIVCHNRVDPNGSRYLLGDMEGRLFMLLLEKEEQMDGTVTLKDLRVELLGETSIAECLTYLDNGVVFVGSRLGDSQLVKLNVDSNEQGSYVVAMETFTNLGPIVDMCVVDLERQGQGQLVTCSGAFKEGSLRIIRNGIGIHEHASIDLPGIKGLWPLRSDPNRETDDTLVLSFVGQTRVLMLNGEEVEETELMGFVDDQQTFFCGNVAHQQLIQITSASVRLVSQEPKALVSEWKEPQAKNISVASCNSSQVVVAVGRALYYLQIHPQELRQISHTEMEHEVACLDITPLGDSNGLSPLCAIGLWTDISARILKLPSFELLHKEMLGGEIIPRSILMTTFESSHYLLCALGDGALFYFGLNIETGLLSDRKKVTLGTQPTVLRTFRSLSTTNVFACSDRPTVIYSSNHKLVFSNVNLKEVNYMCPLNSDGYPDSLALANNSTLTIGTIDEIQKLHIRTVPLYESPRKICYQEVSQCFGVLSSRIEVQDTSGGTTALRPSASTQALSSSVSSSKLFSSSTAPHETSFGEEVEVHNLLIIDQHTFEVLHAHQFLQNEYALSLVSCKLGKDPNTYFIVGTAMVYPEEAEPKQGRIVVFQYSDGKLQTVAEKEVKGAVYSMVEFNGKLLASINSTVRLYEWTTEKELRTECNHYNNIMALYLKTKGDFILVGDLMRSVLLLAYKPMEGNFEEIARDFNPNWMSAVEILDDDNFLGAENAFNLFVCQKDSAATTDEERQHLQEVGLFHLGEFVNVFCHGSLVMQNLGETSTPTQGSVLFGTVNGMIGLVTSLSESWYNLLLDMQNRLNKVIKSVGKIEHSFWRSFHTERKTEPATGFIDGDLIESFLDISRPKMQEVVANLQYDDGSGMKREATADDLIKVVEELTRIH
Sequence of Helios (Q9UKS7 whole entry): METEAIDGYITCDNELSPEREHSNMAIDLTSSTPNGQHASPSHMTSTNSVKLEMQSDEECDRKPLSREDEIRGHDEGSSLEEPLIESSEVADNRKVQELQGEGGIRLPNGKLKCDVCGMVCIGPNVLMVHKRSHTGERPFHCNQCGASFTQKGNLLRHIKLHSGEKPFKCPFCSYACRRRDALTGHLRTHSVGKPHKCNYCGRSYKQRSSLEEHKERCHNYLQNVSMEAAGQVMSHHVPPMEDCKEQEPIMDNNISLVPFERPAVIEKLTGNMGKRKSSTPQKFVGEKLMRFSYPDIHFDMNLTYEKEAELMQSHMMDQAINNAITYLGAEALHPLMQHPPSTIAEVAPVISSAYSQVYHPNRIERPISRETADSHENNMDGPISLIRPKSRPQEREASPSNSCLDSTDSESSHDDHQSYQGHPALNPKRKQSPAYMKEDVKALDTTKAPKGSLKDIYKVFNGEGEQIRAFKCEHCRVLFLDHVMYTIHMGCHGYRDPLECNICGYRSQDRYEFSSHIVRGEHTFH
Sequence of Helios (Q96SW2 whole entry): as the sequence (Q96SW2 whole entry) above
Sequence of Helios (Q16531 whole entry partner): as the sequence (Q16531 whole entry partner) above

Compound | DC50 (Ikaros) [nM] | DC50 (Helios) [nM]
O=C1CCC(N2Cc3cc(-c4cc5ccccc5c(=O)[nH]4)ccc3C2=O)C(=O)N1 (stereo not shown) [Example 157, 3-[1-Oxo-5-(1-oxo-1,2-dihydroisoquinolin-3-yl)-2,3-dihydro-1H-isoindol-2-yl]piperidine-2,6-dione] | ≥ 20000 | 110
Cc1ccc2nc(-c3ccc4c(c3)CN(C3CCC(=O)NC3=O)C4=O)ccc2c1 (stereo not shown) [Example 39, 3-[5-(6-methylquinolin-2-yl)-1-oxo-2,3-dihydro-1H-isoindol-2-yl]piperidine-2,6-dione] | > 20000 | 25
N#Cc1cnc(-c2ccc3c(c2)CN(C2CCC(=O)NC2=O)C3=O)c2ccccc12 (stereo not shown) [Example 90, -(2-(2,6-dioxopiperidin-3-yl)-1-oxoisoindolin-5-yl)isoquinoline-4-carbonitrile] | 410 | 20
N#Cc1cc(N)nc(-c2ccc3c(c2)CN(C2CCC(=O)NC2=O)C3=O)c1 (stereo not shown) [Example 149, 2-amino-6-(2-(2,6-dioxopiperidin-3-yl)-1-oxoisoindolin-5-yl)isonicotinonitrile] | ≥ 10000 | 190
NC(=O)c1ccc(-c2ccc3c(c2)CN(C2CCC(=O)NC2=O)C3=O)nn1 (stereo not shown) [Example 78, 6-[2-(2,6-dioxopiperidin-3-yl)-1-oxo-2,3-dihydro-1H-isoindol-5-yl]pyridazine-3-carboxamide] | > 20000 | 2800
Cc1cc(=O)c2ccc(-c3ccc4c(c3)CN(C3CCC(=O)NC3=O)C4=O)nc2o1 (stereo not shown) [Example 62, 3-(5-{2-methyl-4-oxo-4H-pyrano[2,3-b]pyridin-7-yl}-1-oxo-2,3-dihydro-1H-isoindol-2-yl)piperidine-2,6-dione] | > 20000 | > 20000
Nc1nc(-c2ccc3c(c2)CN(C2CCC(=O)NC2=O)C3=O)cc2ncccc12 (stereo not shown) [Example 57, 3-[5-(5-amino-1,6-naphthyridin-7-yl)-1-oxo-2,3-dihydro-1H-isoindol-2-yl]piperidine-2,6-dione] | > 20000 | 7
N#Cc1cnc(-c2ccc3c(c2)CN(C2CCC(=O)NC2=O)C3=O)nc1N (stereo not shown) [Example 80, 4-Amino-2-[2-(2,6-dioxopiperidin-3-yl)-1-oxo-2,3-dihydro-1H-isoindol-5-yl]pyrimidine-5-carbonitrile] | > 20000 | 320
O=C1CCC(N2Cc3cc(-c4ccc5cc(F)ccc5n4)ccc3C2=O)C(=O)N1 (stereo not shown) [Example 38, 3-[5-(6-fluoroquinolin-2-yl)-1-oxo-2,3-dihydro-1H-isoindol-2-yl]piperidine-2,6-dione] | > 20000 | 22
COc1cccc2ccc(-c3ccc4c(c3)CN(C3CCC(=O)NC3=O)C4=O)nc12 (stereo not shown) [Example 33, 3-[5-(8-methoxyquinolin-2-yl)-1-oxo-2,3-dihydro-1H-isoindol-2-yl]piperidine-2,6-dione] | > 20000 | 120
Cc1cc(-c2ccc3c(c2)CN(C2CCC(=O)NC2=O)C3=O)ncc1C#N (stereo not shown) [Example 152, 6-(2-(2,6-dioxopiperidin-3-yl)-1-oxoisoindolin-5-yl)-4-methylnicotinonitrile] | ≥ 10000 | 760
CC(=O)O[C@@H]1CCOc2nc(-c3ccc4c(c3)CN([C@H]3CCC(=O)NC3=O)C4=O)ccc21 [Example 128, (4R)-7-{2-[(3S)-2,6-dioxopiperidin-3-yl]-1-oxo-2,3-dihydro-1H-isoindol-5-yl}-2H,3H,4H-pyrano[2,3-b]pyridin-4-yl acetate] | ≥ 20000 | 2830
O=C1CCC(N2Cc3cc(-c4ccc5cc(Cl)ccc5n4)ccc3C2=O)C(=O)N1 (stereo not shown) [Example 27, 3-[5-(6-chloroquinolin-2-yl)-1-oxo-2,3-dihydro-1H-isoindol-2-yl]piperidine-2,6-dione] | > 20000 | 25
O=C1CCC(N2Cc3cc(-c4cnc5cc(Cl)ccc5n4)ccc3C2=O)C(=O)N1 (stereo not shown) [Example 18, 3-[5-(6-chloroquinoxalin-2-yl)-1-oxo-2,3-dihydro-1H-isoindol-2-yl]piperidine-2,6-dione] | > 20000 | 120
Cc1cc(-c2ccc3c(c2)CN(C2CCC(=O)NC2=O)C3=O)nc(N)c1C#N (stereo not shown) [Example 148, 2-amino-6-(2-(2,6-dioxopiperidin-3-yl)-1-oxoisoindolin-5-yl)-4-methylnicotinonitrile] | ≥ 10000 | 10
O=C1CCC(N2Cc3cc(-c4ncc(Br)c5cc[nH]c45)ccc3C2=O)C(=O)N1 (stereo not shown) [Example 56, 3-(5-{4-bromo-1H-pyrrolo[2,3-c]pyridin-7-yl}-1-oxo-2,3-dihydro-1H-isoindol-2-yl) piperidine-2,6-dione] | 49 | 27
CC(=O)Nc1cc2ccccc2c(-c2ccc3c(c2)CN([C@H]2CCC(=O)NC2=O)C3=O)n1 [Example 124, (S)—N-(1-(2-(2,6-dioxopiperidin-3-yl)-1-oxoisoindolin-5-yl)isoquinolin-3-yl)acetamide] | ≥ 20000 | 80
Cc1c(-c2ccc3c(c2)CN(C2CCC(=O)NC2=O)C3=O)nc(N)c2ccccc12 (stereo not shown) [Example 131, 3-[5-(1-amino-4-methylisoquinolin-3-yl)-1-oxo-2,3-dihydro-1H-isoindol-2-yl]piperidine-2,6-dione] | ≥ 20000 | 140

Compound | DC50 (Ikaros) [nM] | DC50 (Helios) [nM]
O=C1CCC(N2Cc3cc(-c4ccc5ccccc5n4)ccc3C2=O)C(=O)N1 (stereo not shown) [Example 1, 3-(1-Oxo-5-(quinolin-2-yl)isoindolin-2-yl)piperidine-2,6-dione] | > 20000 | 34
COc1cnc(-c2ccc3c(c2)CN(C2CCC(=O)NC2=O)C3=O)c2ccccc12 (stereo not shown) [Example 103, 3-(5-(4-methoxyisoquinolin-1-yl)-1-oxoisoindolin-2-yl)piperidine-2,6-dione] | ≥ 20000 | 10
N#Cc1ccc(-c2ccc3c(c2)CN(C2CCC(=O)NC2=O)C3=O)nn1 (stereo not shown) [Example 77, 6-[2-(2,6-Dioxopiperidin-3-yl)-1-oxo-2,3-dihydro-1H-isoindol-5-yl]pyridazine-3-carbonitrile] | > 20000 | > 20000
Nc1cncc(-c2ccc3c(c2)CN(C2CCC(=O)NC2=O)C3=O)n1 (stereo not shown) [Example 142, 3-(5-(6-aminopyrazin-2-yl)-1-oxoisoindolin-2-yl)piperidine-2,6-dione] | ≥ 20000 | 1350
O=C1CCC(N2Cc3cc(-c4ncccc4CO)ccc3C2=O)C(=O)N1 (stereo not shown) [Example 107, 3-(5-(3-(hydroxymethyl)pyridin-2-yl)-1-oxoisoindolin-2-yl)piperidine-2,6-dione] | ≥ 10000 | 1130
O=C1CCC(N2Cc3cc(-c4ccc5c(n4)NC(=O)C5)ccc3C2=O)C(=O)N1 (stereo not shown) [Example 114, 3-(1-oxo-5-(2-oxo-2,3-dihydro-1H-pyrrolo[2,3-b]pyridin-6-yl)isoindolin-2-yl)piperidine-2,6-dione] | ≥ 10000 | 1120
COc1cc(C#N)c(N)nc1-c1ccc2c(c1)CN(C1CCC(=O)NC1=O)C2=O (stereo not shown) [Example 181, 2-amino-6-(2-(2,6-dioxopiperidin-3-yl)-1-oxoisoindolin-5-yl)-5-methoxynicotinonitrile] | ≥ 10000 | 140
Cc1cc(-c2ccc3c(c2)CN(C2CCC(=O)NC2=O)C3=O)nc2ccccc12 (stereo not shown) [Example 24, 3-[5-(4-methylquinolin-2-yl)-1-oxo-2,3-dihydro-1H-isoindol-2-yl]piperidine-2,6-dione] | > 20000 | 9
Nc1cc(Cl)cc(-c2ccc3c(c2)CN(C2CCC(=O)NC2=O)C3=O)n1 (stereo not shown) [Example 165, 3-(5-(6-amino-4-chloropyridin-2-yl)-1-oxoisoindolin-2-yl)piperidine-2,6-dione] | ≥ 20000 | 30
Nc1nccc(-c2ccc3c(c2)CN(C2CCC(=O)NC2=O)C3=O)n1 (stereo not shown) [Example 70, 3-(5-(2-aminopyrimidin-4-yl)-1-oxoisoindolin-2-yl)piperidine-2,6-dione] | > 20000 | 480
O=C1CCC(N2Cc3cc(-c4nc5ccccc5cc4Cl)ccc3C2=O)C(=O)N1 (stereo not shown) [Example 36, 3-[5-(3-chloroquinolin-2-yl)-1-oxo-2,3-dihydro-1H-isoindol-2-yl]piperidine-2,6-dione] | > 20000 | 110
Cc1cc(O)nc(-c2ccc3c(c2)CN(C2CCC(=O)NC2=O)C3=O)c1 (stereo not shown) [Example 147, 3-(5-(6-hydroxy-4-methylpyridin-2-yl)-1-oxoisoindolin-2-yl)piperidine-2,6-dione] | ≥ 10000 | 310
COC(=O)c1ccc2nc(-c3ccc4c(c3)CN(C3CCC(=O)NC3=O)C4=O)ccc2c1 (stereo not shown) [Example 31, methyl 2-[2-(2,6-dioxopiperidin-3-yl)-1-oxo-2,3-dihydro-1H-isoindol-5-yl]quinoline-6-carboxylate] | > 20000 | > 20000
O=C1CCC(N2Cc3cc(-c4ccc5c(n4)NCCCC5)ccc3C2=O)C(=O)N1 (stereo not shown) [Example 136, 3-(1-oxo-5-{5H,6H,7H,8H,9H-pyrido[2,3-b]azepin-2-yl}-2,3-dihydro-1H-isoindol-2-yl) piperidine-2,6-dione] | ≥ 10000 | 290
Nc1cn2nc(-c3ccc4c(c3)CN(C3CCC(=O)NC3=O)C4=O)ccc2n1 (stereo not shown) [Example 65, 3-(5-{2-aminoimidazo[1,2-b]pyridazin-6-yl}-1-oxo-2,3-dihydro-1H-isoindol-2-yl)piperidine-2,6-dione] | > 20000 | > 20000
O=C1CCC(N2Cc3cc(-c4nc(O)cc5c(Cl)cccc45)ccc3C2=O)C(=O)N1 (stereo not shown) [Example 145, 3-(5-(5-chloro-3-hydroxyisoquinolin-1-yl)-1-oxoisoindolin-2-yl)piperidine-2,6-dione] | ≥ 20000 | 10
O=C1CCC(N2Cc3cc(-c4nccc5ccccc45)ccc3C2=O)C(=O)N1 (stereo not shown) [Example 66, 3-[5-(isoquinolin-1-yl)-1-oxo-2,3-dihydro-1H-isoindol-2-yl]piperidine-2,6-dione] | 25 | 6
